Source: publication PMC2823959 (Analytical biochemistry, 2009)

Molecular target: taurine/α-ketoglutarate dioxygenase (TauD) (Escherichia coli, UniProt P37610)
Experiment: UV difference absorption titration of apoprotein with global regression analysis
Type: binding

Chain of taurine/α-ketoglutarate dioxygenase (TauD) (P37610 2-283): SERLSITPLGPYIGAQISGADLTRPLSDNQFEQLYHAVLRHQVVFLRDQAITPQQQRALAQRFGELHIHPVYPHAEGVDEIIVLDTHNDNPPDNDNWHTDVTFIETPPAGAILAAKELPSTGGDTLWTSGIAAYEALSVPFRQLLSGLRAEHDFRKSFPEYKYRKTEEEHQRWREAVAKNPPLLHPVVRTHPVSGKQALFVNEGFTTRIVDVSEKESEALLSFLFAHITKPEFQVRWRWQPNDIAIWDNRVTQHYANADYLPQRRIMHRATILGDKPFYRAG

Kd: 175 ± 10 µM
Compound: NCCS(=O)(=O)O [taurine]
